The values that follow come from patent US20240103005A1, “N-ACRYLOYLINDOLES AND METHODS OF USE” (The University of Hong Kong, priority 2022, published 2024).

This experiment has as its system HepG2 cells. As to the kind of experiment: Imaging oxidized thiols in HepG2 cells under oxidative stress by NAI/NAIA couple. The format is cell-based. The conditions noted are these: 50 μM, 10 min. On the procedure: Imaging Oxidized Thiols in HepG2 Cells Under Oxidative Stress by NAI/NAIA Couple
HepG2 cells were plated on a 8-well Nunc Lab-Tek chambered slide system and allowed to grow in complete medium at 37° C. with 5% CO2 to ca. 70% confluency. The cells were then pretreated with solvent vehicles, H2O2 (0.5 or 1 mM) or H2O2 (1 mM)+NAC (5 mM) in complete medium for 15 min at 37° C. The cells were washed with PBS and incubated with NAI compound 3 (50 μM) in complete medium for 10 min at 37° C. After that, the cells were washed with PBS and fixed by 4% paraformaldehyde in PBS at room temperature for 15 min. […] The cells were washed thrice with PBS and then imaged in PBS by confocal fluorescence microscopy.
Confocal fluorescence microscopy imaging was performed with a Zeiss laser scanning microscope 880 with a 20× water-immersion objective lens using ZEN 2.3 (Black Version) software (Carl Zeiss) with 3× magnification zoom-in. […] A region of interest (ROI) was created around individual cell, and cellular fluorescence intensity was measured. The reported average cellular fluorescence intensity was determined by averaging the measured intensity from 30 different cells from 3 different biological replicates/group. […]
Therefore, we sought to utilize the NAI/NAIA couple to capture oxidized thiols and image them by confocal fluorescence microscopy (FIGS. 12A-12B). […]

Consider `C=CC(=O)N1CCc2cc(OCC(=O)OC(C)(C)C)ccc21` [compound 3b], for which the “trapping of free thiols in live cells” value is “excellent trapping of free thiols”.
